Experimental data taken from ChEMBL document CHEMBL4000220, “Optimization of spirocyclic proline tryptophan hydroxylase-1 inhibitors” (Bioorg Med Chem Lett, 2017).
Active and inactive are the calls of the source. No cut-off for these calls is given here.

Biological target: T1, Tryptophan 5-hydroxylase 1 (Homo sapiens, UniProt P17752)
T1 sequence (P17752 whole entry): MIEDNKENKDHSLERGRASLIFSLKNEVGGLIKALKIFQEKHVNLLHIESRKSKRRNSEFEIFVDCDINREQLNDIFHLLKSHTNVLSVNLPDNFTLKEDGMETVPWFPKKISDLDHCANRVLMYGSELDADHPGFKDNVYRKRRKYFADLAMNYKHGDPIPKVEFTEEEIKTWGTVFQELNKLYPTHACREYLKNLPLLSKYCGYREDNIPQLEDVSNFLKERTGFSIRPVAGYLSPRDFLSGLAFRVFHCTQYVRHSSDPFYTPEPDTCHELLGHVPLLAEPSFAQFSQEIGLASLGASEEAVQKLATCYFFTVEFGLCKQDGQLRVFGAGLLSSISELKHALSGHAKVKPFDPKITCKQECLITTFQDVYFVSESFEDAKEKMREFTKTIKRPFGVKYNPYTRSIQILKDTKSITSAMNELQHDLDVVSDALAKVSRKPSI
Description: Inhibition of TPH1 (unknown origin)

Compound | IC50 [nM]
Cc1cccc(-c2cc(Cl)ccc2[C@@H](Oc2cc(N3CCC4(CC3)CN[C@H](C(=O)O)C4)nc(N)n2)C(F)(F)F)n1 | 73
Cc1ccn(-c2cc(-c3ccc(C)c(C)c3)ccc2[C@@H](Oc2cc(N3CCC4(CC3)CN[C@H](C(=O)O)C4)nc(N)n2)C(F)(F)F)n1 | 20
Nc1nc(O[C@H](c2ccc(Cl)cc2-c2cc(F)cc(Cl)c2)C(F)(F)F)cc(N2CCC3(CC2)CN[C@H](C(=O)O)C3)n1 | 35
Cc1cc(-c2cc(Cl)ccc2[C@@H](Oc2cc(N3CCC4(CC3)CN[C@H](C(=O)O)C4)nc(N)n2)C(F)(F)F)ccc1Cl | 62
Nc1nc(O[C@H](c2ccc(Cl)cc2-c2cccnc2)C(F)(F)F)cc(N2CCC3(CC2)CN[C@H](C(=O)O)C3)n1 | 65
Nc1nc(O[C@H](c2ccc(Cl)cc2-c2cccc(N3CCCC3=O)c2)C(F)(F)F)cc(N2CCC3(CC2)CN[C@H](C(=O)O)C3)n1 | 77
NC(=O)c1cccc(-c2cc(Cl)ccc2[C@@H](Oc2cc(N3CCC4(CC3)CN[C@H](C(=O)O)C4)nc(N)n2)C(F)(F)F)c1 | 40
Nc1nc(O[C@H](c2ccc(Cl)cc2-c2ccc(F)c(F)c2)C(F)(F)F)cc(N2CCC3(CC2)CN[C@H](C(=O)O)C3)n1 | 35
CN(C)S(=O)(=O)c1cccc(-c2cc(Cl)ccc2[C@@H](Oc2cc(N3CCC4(CC3)CN[C@H](C(=O)O)C4)nc(N)n2)C(F)(F)F)c1 | 53
Nc1nc(O[C@H](c2ccc(Cl)cc2-c2ccc(Cl)cc2)C(F)(F)F)cc(N2CCC3(CC2)CN[C@H](C(=O)O)C3)n1 | 53
N#Cc1cccc(-c2cc(Cl)ccc2[C@@H](Oc2cc(N3CCC4(CC3)CN[C@H](C(=O)O)C4)nc(N)n2)C(F)(F)F)c1 | 30
CS(=O)(=O)Nc1cccc(-c2cc(Cl)ccc2[C@@H](Oc2cc(N3CCC4(CC3)CN[C@H](C(=O)O)C4)nc(N)n2)C(F)(F)F)c1 | 51
CS(=O)(=O)c1ccc(-c2cc(Cl)ccc2[C@@H](Oc2cc(N3CCC4(CC3)CN[C@H](C(=O)O)C4)nc(N)n2)C(F)(F)F)cc1 | 885
Nc1nc(O[C@H](c2ccc(Cl)cc2-c2cccc(Cl)c2)C(F)(F)F)cc(N2CCC3(CC2)CN[C@H](C(=O)O)C3)n1 | 30
Cc1ccn(-c2cc(-c3ccc(Cl)c(Cl)c3)ccc2[C@@H](Oc2cc(N3CCC4(CC3)CN[C@H](C(=O)O)C4)nc(N)n2)C(F)(F)F)n1 | 22
COc1ccc(-c2ccc([C@@H](Oc3cc(N4CCC5(CC4)CN[C@H](C(=O)O)C5)nc(N)n3)C(F)(F)F)c(-n3ccc(C)n3)c2)cc1 | 23
CCOc1ccc(-c2cc(Cl)ccc2[C@@H](Oc2cc(N3CCC4(CC3)CN[C@H](C(=O)O)C4)nc(N)n2)C(F)(F)F)cc1Cl | 207
Nc1nc(O[C@H](c2ccc(Cl)cc2-c2ccc(S(N)(=O)=O)cc2)C(F)(F)F)cc(N2CCC3(CC2)CN[C@H](C(=O)O)C3)n1 | 1130

Test system: Mus musculus
Experiment: In vivo inhibition of TPH1 in mouse assessed as reduction in 5-HT level in intestinal mucosa at 50 mg/kg, po administered daily as single dose relative to control
Format: functional

Compound | inhibition | inhibition in vivo at 50 mg/kg [%]
CCOC(=O)[C@@H]1CC2(CCN(c3cc(O[C@H](c4ccc(-c5ccc6ncc(F)cc6c5)cc4)C(F)(F)F)nc(N)n3)CC2)CN1 | inactive | 
CCOC(=O)[C@@H]1CC2(CCN(c3cc(O[C@H](c4ccc(-c5ccc6c(cnn6C)c5)cc4)C(F)(F)F)nc(N)n3)CC2)CN1 | inactive | 
CCOC(=O)[C@@H]1CC2(CCN(c3cc(O[C@H](c4ccc(-c5ccc6cnccc6c5)cc4)C(F)(F)F)nc(N)n3)CC2)CN1 | inactive | 
CCOC(=O)[C@@H]1CC2(CCN(c3cc(O[C@H](c4ccc(-c5ccc(Cl)c(Cl)c5)cc4-n4ccc(C)n4)C(F)(F)F)nc(N)n3)CC2)CN1 |  | 60
CCOC(=O)[C@@H]1CC2(CCN(c3cc(O[C@H](c4ccc(-c5ccc6c(c5)CCC(=O)N6)cc4)C(F)(F)F)nc(N)n3)CC2)CN1 | inactive | 
CCOC(=O)[C@@H]1CC2(CCN(c3cc(O[C@H](c4ccc(-c5ccc6c(C)nn(C)c6c5)cc4)C(F)(F)F)nc(N)n3)CC2)CN1 | inactive | 
CCOC(=O)[C@@H]1CC2(CCN(c3cc(O[C@H](c4ccc(-c5ccc(OC)cc5)cc4-n4ccc(C)n4)C(F)(F)F)nc(N)n3)CC2)CN1 |  | 46
